Assay results as given in patent publication US20050244490A1, “Dosing methods for beta-D-2',3'-dideoxy-2',3'-didehydro-5-fluorocytidine antiviral therapy” (priority 2003, published 2005).
Where “and” joins values, the source holds several entries; their conditions need not be identical. Identical values can stand only once.

How the values were obtained:
[1] = Safety and tolerability of single oral doses
Source text: (§1) Total of 18 HIV-1 infected males, aged 18-55 years, enrolled, 6 per treatment cohort.

clinical = settings: in vivo; for CL renal: CLr; for CL/F: CLtot/F
Protocol: as §1
In Cohort 3, subjects received either 100 mg, or 200 mg, or placebo.
The data was analyzed using non-compartmental and two-compartmental models.
HIV RNA levels were also determined using quantitative real-time RT-PCR.
Plasma HIV-1 RNA levels were measured by quantitative reverse transcriptase-polymerase chain reaction (Q-RT-PCR) essentially as described by Stuyver, L. J. et al., “Antiviral activity and cellular toxicity of modified 2′,3′-dideoxy-2′,3′-didehydrocytidine analogues” Antimicrob Agents Chemother.

wild type HIV-1 = settings: read-out: in vitro EC90 for wild type virus; cited from earlier work

## Nc1nc(=O)n(C2C=CC(CO)O2)cc1F [β-D-D4FC, β-D-2′,3′-Didehydro-2′,3′-dideoxy-5-fluorocytidine]
[1]; any dose level
  serious adverse events: no serious adverse events
[1]; in vivo
  tolerability of single doses: well tolerated
clinical; human, 50 mg
  mean terminal half-life in plasma (t1/2): 6.8±4.2 h to 15.6±12.4
clinical; human, 200 mg
  mean t1/2: 11.3±1.6 hours to 14.3±3.1
clinical; human, po
  oral bioavailability: high oral bioavailability
clinical; male, human
  mean plasma half-life (t1/2): 12.3 ± 4.0 h
clinical; male, human, 10 mg
  Cmax: ~1000 nM
  AUC(0-inf): 858 ng·h/mL
  CL renal: 136 mL/min
  CL/F: 196 mL/min
clinical; male, human, 10 mg, AUC Actual
  AUC: 3.6 ± 0.5 µM·h
clinical; male, human, 10 mg, AUC(0-τ)
  AUC: 843 ng·h/mL
clinical; male, human, 10 mg, Cmax
  Cmax: 197 ng/mL
clinical; male, human, 10 mg, Cmax Actual
  Cmax: 870 ± 130 nM
clinical; male, human, 10 mg, lowest Cmax, at which a maximal effect of viral inhibition was obtained
  Cmax: 870 nM
clinical; male, human, 10 mg, t1/2 λz
  half-life: 4.2 h
clinical; male, human, 10 mg, tmax
  Tmax: 1 h
clinical; male, human, 25 mg, AUC Actual
  AUC: 8.1 ± 1.5 µM·h
clinical; male, human, 25 mg, AUC(0-τ)
  AUC: 1830 ng·h/mL
clinical; male, human, 25 mg
  AUC(0-inf): 1840 ng·h/mL
  CL renal: 120 mL/min
  CL/F: 230 mL/min
clinical; male, human, 25 mg, Cmax
  Cmax: 406 ng/mL
clinical; male, human, 25 mg, Cmax Actual
  Cmax: 1800 ± 500 nM
clinical; male, human, 25 mg, t1/2 λz
  half-life: 4.49 h
clinical; male, human, 25 mg, tmax
  Tmax: 1.17 h
clinical; male, human, 50 mg
  AUC(0-τ): 3,196 ng · h/mL
  AUC(0-∞): 3,221 ng · h/mL
  CLr: 4.30 L/h
  CLtot/F: 17,492 mL/h
  Cmax: 572 ng/mL
  t1/2 λz: 7.02 h
  AUC(0-inf): 3500 ng·h/mL
  CL renal: 73.2 mL/min
  CL/F: 245 mL/min
clinical; male, human, 50 mg, AUC Actual
  AUC: 27 ± 6.4 µM·h
clinical; male, human, 50 mg, AUC(0-τ)
  AUC: 3470 ng·h/mL
clinical; male, human, 50 mg, Cmax
  Cmax: 668 ng/mL
clinical; male, human, 50 mg, Cmax Actual
  Cmax: 4800 ± 1300 nM
clinical; male, human, 50 mg, mean Cmax
  Cmax: 2500 nM
clinical; male, human, 50 mg, t1/2 λz
  half-life: 7.73 h
clinical; male, human, 50 mg, tmax
  Tmax: 1 h
clinical; male, human, 100 mg, AUC Actual
  AUC: 32.7 ± 6.8 µM·h
clinical; male, human, 100 mg, AUC(0-τ)
  AUC: 7010 ng·h/mL
clinical; male, human, 100 mg
  AUC(0-inf): 7100 ng·h/mL
  CL renal: 124 mL/min
  CL/F: 242 mL/min
clinical; male, human, 100 mg, Cmax
  Cmax: 1120 ng/mL
clinical; male, human, 100 mg, Cmax Actual
  Cmax: 5000 ± 1200 nM
clinical; male, human, 100 mg, t1/2 λz
  half-life: 9.25 h
clinical; male, human, 100 mg, tmax
  Tmax: 2.92 h
clinical; male, human, 200 mg, AUC Actual
  AUC: 52.5 ± 9.2 µM·h
clinical; male, human, 200 mg, AUC(0-τ)
  AUC: 11200 ng·h/mL
clinical; male, human, 200 mg
  AUC(0-inf): 11400 ng·h/mL
  CL renal: 125 mL/min
  CL/F: 301 mL/min
clinical; male, human, 200 mg, Cmax
  Cmax: 1750 ng/mL
clinical; male, human, 200 mg, Cmax Actual
  Cmax: 7700 ± 1600 nM
clinical; male, human, 200 mg, mean Tmax
  Tmax: 2.9 ± 1.6 h
clinical; male, human, 200 mg, t1/2 λz
  half-life: 10.9 h
clinical; male, human, 200 mg, tmax
  Tmax: 3.33 h
clinical; male, human, mean Tmax
  Tmax: 1.1 ± 0.2 h
clinical; male, human, mean plasma half-life (t1/2)
  half-life: 12.3 ± 4 h
clinical; male, human, po, 10 mg
  AUC Projected: 5.0 µM·h
  Cmax: 630 nM
clinical; male, human, po, 10 mg, AUC
  AUC: 3.57 ± 0.55 µM·h
clinical; male, human, po, 10 mg, Cmax
  Cmax: 870 ± 130 nM
clinical; male, human, po, 10 mg, T ½
  half-life: 6.8 ± 4.2 h
clinical; male, human, po, 10 mg, Tmax
  Tmax: 1 h
clinical; male, human, po, 25 mg
  AUC Projected: 12.5 µM·h
  Cmax: 1600 nM
clinical; male, human, po, 25 mg, AUC
  AUC: 8.12 ± 1.47 µM·h
clinical; male, human, po, 25 mg, Cmax
  Cmax: 1760 ± 480 nM
clinical; male, human, po, 25 mg, T ½
  half-life: 15.6 ± 12.4 h
clinical; male, human, po, 25 mg, Tmax
  Tmax: 1.4 ± 1.1 h
clinical; male, human, po, 50 mg
  AUC: 28.03 ± 4.51 µM·h
  AUC Projected: 25 µM·h
  T ½: 13.8 ± 2.4 h
clinical; male, human, po, 50 mg, AUC
  AUC: 25.9 ± 8.3 µM·h
clinical; male, human, po, 50 mg, Cmax
  Cmax: 4400 ± 1600 nM
clinical; male, human, po, 50 mg, T ½
  half-life: 14.3 ± 3.1 h
clinical; male, human, po, 50 mg, Tmax
  Tmax: 2 ± 0.8 h
clinical; male, human, po, 100 mg
  AUC Projected: 50 µM·h
  Cmax: 6300 nM
clinical; male, human, po, 100 mg, AUC
  AUC: 32.7 ± 6.85 µM·h
clinical; male, human, po, 100 mg, Cmax
  Cmax: 4950 ± 1200 nM
clinical; male, human, po, 100 mg, T ½
  half-life: 11.3 ± 1.6 h
clinical; male, human, po, 100 mg, Tmax
  Tmax: 2.9 ± 1 h
clinical; male, human, po, 200 mg
  AUC Projected: 100 µM·h
  Cmax: 12600 nM
clinical; male, human, po, 200 mg, AUC
  AUC: 52.5 ± 9.2 µM·h
clinical; male, human, po, 200 mg, Cmax
  Cmax: 7700 ± 1600 nM
clinical; male, human, po, 200 mg, T ½
  half-life: 12 ± 0.6 h
clinical; male, human, po, 200 mg, Tmax
  Tmax: 3.3 ± 1.6 h
clinical; male
  time plasma levels remain above the median effective concentrations in human PBM cells: > 24 h
Wild type HIV-1
  EC90: 900 nM and < 1000 nM
